Reference: US9776995B2, “Bicyclic sulfonamide compounds as sodium channel inhibitors” (AMGEN INC., priority 2013, dated 2017)

These molecules were tested against T1, Nav 1.7 (Homo sapiens (Human), UniProt Q15858) (assay: in-vitro Nav 1.7 PX data). Conditions: PatchXpress (PX), in vitro.
Assay type: cell-based

T1 sequence (Q15858 whole entry): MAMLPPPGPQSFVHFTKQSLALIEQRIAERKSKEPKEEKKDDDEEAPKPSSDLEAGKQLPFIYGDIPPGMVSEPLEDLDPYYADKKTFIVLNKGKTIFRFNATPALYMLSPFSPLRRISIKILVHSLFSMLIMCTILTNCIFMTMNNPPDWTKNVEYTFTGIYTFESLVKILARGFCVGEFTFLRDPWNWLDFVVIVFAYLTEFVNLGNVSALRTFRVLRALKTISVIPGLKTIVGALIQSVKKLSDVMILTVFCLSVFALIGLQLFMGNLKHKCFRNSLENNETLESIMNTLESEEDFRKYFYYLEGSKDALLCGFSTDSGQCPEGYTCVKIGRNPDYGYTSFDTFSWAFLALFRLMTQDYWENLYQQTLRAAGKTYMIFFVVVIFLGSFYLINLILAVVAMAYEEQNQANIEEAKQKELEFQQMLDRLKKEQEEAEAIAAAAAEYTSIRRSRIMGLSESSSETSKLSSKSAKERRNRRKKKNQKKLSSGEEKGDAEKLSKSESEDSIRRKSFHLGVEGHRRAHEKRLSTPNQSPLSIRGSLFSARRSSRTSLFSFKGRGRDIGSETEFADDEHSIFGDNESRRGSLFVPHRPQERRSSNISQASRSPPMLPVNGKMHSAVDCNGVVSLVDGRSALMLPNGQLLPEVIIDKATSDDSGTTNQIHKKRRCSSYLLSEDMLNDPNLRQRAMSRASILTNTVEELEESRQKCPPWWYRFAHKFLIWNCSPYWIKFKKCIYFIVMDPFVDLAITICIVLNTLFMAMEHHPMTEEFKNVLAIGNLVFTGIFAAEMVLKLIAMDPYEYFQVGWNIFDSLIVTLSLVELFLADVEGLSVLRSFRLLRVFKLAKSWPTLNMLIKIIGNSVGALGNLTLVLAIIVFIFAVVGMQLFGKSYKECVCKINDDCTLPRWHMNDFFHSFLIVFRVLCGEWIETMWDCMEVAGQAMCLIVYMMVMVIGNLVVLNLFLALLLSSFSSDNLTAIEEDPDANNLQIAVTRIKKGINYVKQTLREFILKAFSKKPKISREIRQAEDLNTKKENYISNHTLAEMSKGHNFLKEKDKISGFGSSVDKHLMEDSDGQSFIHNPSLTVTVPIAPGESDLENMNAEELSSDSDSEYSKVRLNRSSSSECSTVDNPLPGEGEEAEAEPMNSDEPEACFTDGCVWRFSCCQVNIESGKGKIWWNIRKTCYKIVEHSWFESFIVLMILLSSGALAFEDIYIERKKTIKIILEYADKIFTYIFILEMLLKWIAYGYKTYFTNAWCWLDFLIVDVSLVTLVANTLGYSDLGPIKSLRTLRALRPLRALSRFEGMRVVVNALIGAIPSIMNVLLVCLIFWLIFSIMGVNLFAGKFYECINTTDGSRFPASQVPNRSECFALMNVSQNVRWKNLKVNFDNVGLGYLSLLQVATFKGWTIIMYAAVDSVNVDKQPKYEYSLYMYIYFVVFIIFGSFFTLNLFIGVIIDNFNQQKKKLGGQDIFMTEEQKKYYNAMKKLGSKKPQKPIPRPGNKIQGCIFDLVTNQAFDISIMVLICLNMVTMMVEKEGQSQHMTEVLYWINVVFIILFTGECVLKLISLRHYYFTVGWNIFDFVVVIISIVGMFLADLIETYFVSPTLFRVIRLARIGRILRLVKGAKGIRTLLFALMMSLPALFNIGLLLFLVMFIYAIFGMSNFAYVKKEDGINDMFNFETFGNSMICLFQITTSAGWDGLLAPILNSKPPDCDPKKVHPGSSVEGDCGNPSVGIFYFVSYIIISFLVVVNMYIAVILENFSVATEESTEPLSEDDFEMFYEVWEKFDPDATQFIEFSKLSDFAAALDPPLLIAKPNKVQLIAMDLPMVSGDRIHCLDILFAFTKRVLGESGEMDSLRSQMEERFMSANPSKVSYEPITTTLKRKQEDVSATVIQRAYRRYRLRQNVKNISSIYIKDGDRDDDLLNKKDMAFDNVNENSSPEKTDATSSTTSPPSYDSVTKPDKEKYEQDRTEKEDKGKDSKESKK

Row | SMILES | IC50
1 | COc1cc(-c2ccc(C)c(Cl)c2)c(Cl)cc1-c1nccc2cc(S(=O)(=O)Nc3ccon3)ccc12 [Example 96, 1-(2,3′-dichloro-5-methoxy-4′-methyl-4-biphenylyl)-N-3-isoxazolyl-6-isoquinolinesulfonamide] | 73.8 nM
2 | COc1cc(-c2cc(F)cc(F)c2)c(F)cc1-c1nccc2cc(S(=O)(=O)Nc3ccon3)ccc12 [Example 98, N-3-isoxazolyl-1-(2,3′,5′-trifluoro-5-methoxy-4-biphenylyl)-6-isoquinolinesulfonamide] | 34.5 nM
3 | COc1nc(N(C)CC(C)C)ccc1-c1nccc2cc(S(=O)(=O)Nc3ccncn3)ccc12 [Example 68, 1-(2-methoxy-6-(methyl(2-methylpropyl)amino)-3-pyridinyl)-N-4-pyrimidinyl-6-isoquinolinesulfonamide] | 2880 nM
4 | COc1nc(N2CCC(F)(F)CC2)ccc1-c1nccc2cc(S(=O)(=O)Nc3ccncn3)ccc12 [Example 71, 1-(6-(4,4-difluoro-1-piperidinyl)-2-methoxy-3-pyridinyl)-N-4-pyrimidinyl-6-isoquinolinesulfonamide] | 834 nM
5 | COc1cc(-c2cc(F)cnc2OC)c(F)cc1-c1nccc2cc(S(=O)(=O)Nc3ccon3)ccc12 [Example 93, 1-(5-fluoro-4-(5-fluoro-2-methoxy-3-pyridinyl)-2-methoxyphenyl)-N-3-isoxazolyl-6-isoquinolinesulfonamide] | 67.7 nM

Same assay, conditions: in-vitro Nav 1.7 PX data

Row | SMILES | IC50
6 | COc1cc(-c2cc(F)cc(F)c2)ccc1-c1nccc2cc(S(=O)(=O)Nc3ncc(C(F)(F)F)o3)ccc12 [Example 143, 1-(3′,5′-difluoro-3-methoxy-4-biphenylyl)-N-(5-(trifluoromethyl)-1,3-oxazol-2-yl)-6-isoquinolinesulfonamide] | 3220 nM
7 | COc1ccc(C)c(-c2cc(C)c(-c3ncnc4cc(S(=O)(=O)Nc5ccon5)ccc34)cc2OC)c1 [Example 173, 4-(2,5′-dimethoxy-2′,5-dimethyl-4-biphenylyl)-N-3-isoxazolyl-7-quinazolinesulfonamide] | 3840 nM
8 | Cc1ccc(OCC2CC2)cc1-c1nccc2cc(S(=O)(=O)Nc3ccncn3)ccc12 [Example 153, 1-(5-(cyclopropylmethoxy)-2-methylphenyl)-N-4-pyrimidinyl-6-isoquinolinesulfonamide] | 7680 nM
9 | Cc1ccc(Oc2ccccn2)cc1-c1nccc2cc(S(=O)(=O)Nc3ccncn3)ccc12 [Example 40, 1-(2-METHYL-5-(PYRIDIN-2-YLOXY)PHENYL)-N-(PYRIMIDIN-4-YL)ISOQUINOLINE-6-SULFONAMIDE] | 5690 nM
10 | COc1cc(C#N)c(-c2cc(F)cc(F)c2)cc1-c1nccc2cc(S(=O)(=O)Nc3ccon3)ccc12 [Example 139, 1-(6-cyano-3′,5′-difluoro-4-methoxy-3-biphenylyl)-N-3-isoxazolyl-6-isoquinolinesulfonamide] | 15300 nM
11 | COc1cc(-c2nccc3cc(S(=O)(=O)Nc4ccon4)ccc23)c(C)cc1-c1ccc(Cl)c(C)c1 [Example 35] | 3300 nM
12 | COc1ncc(-c2ccccc2)cc1-c1nccc2cc(S(=O)(=O)Nc3ccncn3)ccc12 [Example 152, 1-(2-methoxy-5-phenyl-3-pyridinyl)-N-4-pyrimidinyl-6-isoquinolinesulfonamide] | 2440 nM

Same assay, conditions: in-vitro PX

Row | SMILES | IC50
13 | COc1cc(-c2cccc(F)c2)c(Cl)cc1-c1ncnc2cc(S(=O)(=O)Nc3cnsn3)ccc12 [Example 207, 4-(2-chloro-3′-fluoro-5-methoxy-4-biphenylyl)-N-1,2,5-thiadiazol-3-yl-7-quinazolinesulfonamide] | 51.5 nM
14 | COc1cc(-c2cccc(F)c2)c(Cl)cc1-c1n[nH]c(=O)c2cc(S(=O)(=O)Nc3ccon3)ccc12 [Example 232, 1-(2-chloro-3′-fluoro-5-methoxy-4-biphenylyl)-N-3-isoxazolyl-4-oxo-3,4-dihydro-6-phthalazinesulfonamide] | 126 nM

Same assay, conditions: in-vitro PX (PatchXpress) data

Row | SMILES | IC50
15 | COc1cc(-c2ccc(F)c(Cl)c2)c(Cl)cc1-c1ncnc2cc(S(=O)(=O)Nc3ccon3)ccc12 [Example 19, 4-(2,3′-DICHLORO-4′-FLUORO-5-METHOXY-[1,1′-BIPHENYL]-4-YL)-N-(ISOXAZOL-3-YL)QUINAZOLINE-7-SULFONAMIDE] | 7.8 nM
16 | COc1cc(Oc2ccc(F)cn2)ccc1-c1nccc2cc(S(=O)(=O)Nc3ccon3)ccc12 [Example 195, 1-(4-((5-fluoro-2-pyridinyl)oxy)-2-methoxyphenyl)-N-3-isoxazolyl-6-isoquinolinesulfonamide] | 1610 nM

Same assay, conditions: in-vitro PX data

Row | SMILES | IC50
17 | COc1cc(-c2cccc(C(F)(F)F)c2)c(F)cc1-c1ncnc2cc(S(=O)(=O)Nc3ccon3)ccc12 [Example 102, 4-(2-fluoro-5-methoxy-3′-(trifluoromethyl)-4-biphenylyl)-N-3-isoxazolyl-7-quinazolinesulfonamide] | 22.9 nM

These molecules were tested against T1, Nav 1.7 (assay: Nav 1.7 in vitro PX assay (PatchXpress whole cell voltage clamp)). Conditions: HEK 293 cells stably transfected with human Nav1.7; PatchXpress; partially inactivated state.
Assay type: cell-based

Row | SMILES | IC50
18 | COc1cc(-c2cc(F)cc(F)c2)c(C)cc1-c1ncnc2cc(S(=O)(=O)Nc3ncccn3)ccc12 [Example 438, 4-(3′,5′-DIFLUORO-5-METHOXY-2-METHYL-[1,1′-BIPHENYL]-4-YL)-N-(PYRIMIDIN-2-YL)QUINAZOLINE-7-SULFONAMIDE] | 94 nM
19 | COc1cc(-c2cccc(F)c2)ccc1-c1c(=O)n(C)cc2cc(S(=O)(=O)Nc3ccon3)ccc12 [Example 589, 4-(3′-fluoro-3-methoxy-4-biphenylyl)-N-3-isoxazolyl-2-methyl-3-oxo-2,3-dihydro-7-isoquinolinesulfonamide] | 533 nM
20 | COc1cc(-c2cccc(Cl)c2)c(F)cc1-c1ncnc2cc(S(=O)(=O)Nc3ncon3)ccc12 [Example 376, 4-(3′-chloro-2-fluoro-5-methoxy-[1,1′-biphenyl]-4-yl)-N-(1,2,4-oxadiazol-3-yl)quinazoline-7-sulfonamide] | 28 nM
21 | COc1cc(F)c(-c2ccc(F)nc2)cc1-c1nccc2cc(S(=O)(=O)Nc3ccon3)ccc12 [Example 497, 1-(4-fluoro-5-(6-fluoro-3-pyridinyl)-2-methoxyphenyl)-N-3-isoxazolyl-6-isoquinolinesulfonamide] | 479 nM
22 | COc1cc(-c2ccc3c(c2)CCC3)c(C)cc1-c1ncnc2cc(S(=O)(=O)Nc3ccon3)ccc12 [Example 566, 4-(4-(2,3-dihydro-1H-inden-5-yl)-2-methoxy-5-methylphenyl)-N-3-isoxazolyl-7-quinazolinesulfonamide] | 169 nM
23 | COc1cc(-c2cc(F)cc(C3CC3)c2)c(C)cc1-c1ncnc2cc(S(=O)(=O)Nc3ccon3)ccc12 [Example 555, 4-(3′-cyclopropyl-5′-fluoro-5-methoxy-2-methyl-4-biphenylyl)-N-3-isoxazolyl-7-quinazolinesulfonamide] | 61 nM
24 | COc1cc(-c2cccc(F)c2)c(Cl)cc1-c1c(O)cnc2cc(S(=O)(=O)Nc3ccon3)ccc12 (atropisomer, axis not shown; (M)) [Example 337, (M)-4-(2-chloro-3′-fluoro-5-methoxy-[1,1′-biphenyl]-4-yl)-3-hydroxy-N-(isoxazol-3-yl)quinoline-7-sulfonamide] | 71 nM
25 | COc1cc(-c2cc(C)ccc2F)c(C)cc1-c1ncnc2cc(S(=O)(=O)Nc3ccon3)ccc12 [Example 556, 4-(2′-fluoro-5-methoxy-2,5′-dimethyl-4-biphenylyl)-N-3-isoxazolyl-7-quinazolinesulfonamide] | 113 nM
26 | COc1cc(-c2cc(C)cc(C)c2)c(F)cc1-c1ncnc2cc(S(=O)(=O)Nc3ccon3)ccc12 [Example 536, 4-(2-fluoro-5-methoxy-3′,5′-dimethyl-4-biphenylyl)-N-3-isoxazolyl-7-quinazolinesulfonamide] | 51 nM
27 | COc1cc(-c2cccc(F)c2)c(Cl)cc1-c1c(C)ncc2cc(S(=O)(=O)Nc3ccon3)ccc12 (atropisomer, axis not shown; (P)) [Example 318, (P)-4-(2-chloro-3′-fluoro-5-methoxy-4-biphenylyl)-N-3-isoxazolyl-3-methyl-7-isoquinolinesulfonamide] | 1390 nM
28 | CCc1nnc2cc(S(=O)(=O)Nc3ccon3)ccc2c1-c1cc(Cl)c(-c2cccc(F)c2)cc1OC (atropisomer, axis not shown; (M)) [Example 443, (M)-4-(2-chloro-3′-fluoro-5-methoxy-[1,1′-biphenyl]-4-yl)-3-ethyl-N-(isoxazol-3-yl)cinnoline-7-sulfonamide] | 87 nM

Same assay, conditions: PatchXpress (PX)

Row | SMILES | IC50
29 | COc1cn(-c2cc(F)cc(F)c2)c(=O)cc1-c1nccc2cc(S(=O)(=O)Nc3ccon3)ccc12 [Example 56, 1-(1-(3,5-DIFLUOROPHENYL)-5-METHOXY-2-OXO-1,2-DIHYDROPYRIDIN-4-YL)-N-(ISOXAZOL-3-YL)ISOQUINOLINE-6-SULFONAMIDE] | 11800 nM
30 | COc1cc(-c2cccc(C(F)(F)F)c2)c(C)cc1-c1ncnc2cc(S(=O)(=O)Nc3ccon3)ccc12 [Example 265, N-3-isoxazolyl-4-(5-methoxy-2-methyl-3′-(trifluoromethyl)-4-biphenylyl)-7-quinazolinesulfonamide] | 18.4 nM
31 | COc1cc(-c2cc(C)cc(F)c2)c(C)cc1-c1ncnc2cc(S(=O)(=O)Nc3ccon3)ccc12 [Example 260, 4-(3′-fluoro-5-methoxy-2,5′-dimethyl-4-biphenylyl)-N-3-isoxazolyl-7-quinazolinesulfonamide] | 36.7 nM

Same assay, conditions: in-vitro Nav 1.7 PX (PatchXpress)

Row | SMILES | IC50
32 | COc1nc(-c2cc(F)cc(F)c2)c(C#N)cc1-c1cccc2cc(S(=O)(=O)Nc3ccncn3)ccc12 [Example 64] | 91 nM
33 | COc1cc(-c2cc(C)ccc2F)c(C)cc1-c1ncnc2cc(S(=O)(=O)Nc3ccon3)ccc12 [Example 307, 4-(2′-fluoro-5-methoxy-2,5′-dimethyl-4-biphenylyl)-N-3-isoxazolyl-7-quinazolinesulfonamide] | 113 nM
34 | COc1cc(-c2cccc(F)c2)c(Cl)cc1-c1cccc2cc(S(=O)(=O)Nc3ccon3)ccc12 [Example 291, 5-(2-chloro-3′-fluoro-5-methoxy-4-biphenylyl)-N-3-isoxazolyl-2-naphthalenesulfonamide] | 1160 nM
35 | COc1cc(-c2cc(F)cc(Cl)c2)c(C)cc1-c1nccc2cc(S(=O)(=O)Nc3ccon3)ccc12 [Example 285, 1-(3′-chloro-5′-fluoro-5-methoxy-2-methyl-4-biphenylyl)-N-3-isoxazolyl-6-isoquinolinesulfonamide] | 58 nM
